{
  "source": "patent US12565514B2",
  "about": "“Nucleic acid containing perfluoroalkyl group, and method for its production” (AGC Inc., priority 2019, dated 2026)",
  "note": "{C5-PFC} = N[C5-PFC] unit carrying a C5 perfluoroalkyl group, added by phosphoramidite",
  "data": [
    {"test_system": "HeLa cells", "test": "Cellular uptake of fluorescein-modified nucleic acids by flow cytometry", "type": "cell-based", "settings": "single-stranded nucleic acid with fluorescein at 3′-end, 2.5 μM in DMEM, incubated 4 or 24 hours", "method": "HeLa cells were cultured in Dulbecco's modified Eagle's medium (DMEM, Thermo Fischer Scientific) supplemented with 10% FBS and 0.5% penicillin/streptomycin in a humidified atmosphere (5 volume % CO2) at 37° C. Cells for image analysis were cultured in a 35 mm glass bottom dish (manufactured by IWAKI).\nHeLa cells were seeded in 12-well plates at a density of 10^5 cells/well and cultured. On the day after seeding, the medium in each well was replaced with DMEM medium (1 mL) containing DNA (2.5 μM) modified with fluorescein-bound N[PFC] or N[PFPE], and incubated for 4 or 24 hours. Then, the cell layer in the wells was washed twice with PBS, and the cells were detached by treatment with 0.05% (w/v) trypsin (200 μL) at 37° C. for 5 min. The recovered cells were suspended in DMEM (600 μL). The cell suspension was separated by centrifugation process (400G, 3 min), and PBS/1% BSA (500 μL) was added. The percentage of fluorescent cells and the average fluorescence intensity of this cell suspension were analyzed by a flow cytometer (“guava easyCyte8”, manufactured by Luminex).\nIn the case of double-stranded DNA, a sample was denatured at 100° C. and annealed by slowly bringing it down to room temperature.\nThe nucleic acid having fluorescein bonded to the 3′-end of the N[C8-PFC]-modified DNA synthesized in Example 2 was, as a single strand or as a double strand, added to the culture medium of HeLa cells and incubated, whereby the efficiency of cellular uptake was examined by flow cytometry.\nThe nucleic acid having fluorescein bonded to the 3′-end of the N[C5-PFPE]-modified DNA synthesized in Example 1 was, as a single strand, added to the culture medium of HeLa cells and incubated, whereby the efficiency of cellular uptake was examined by flow cytometry.", "values": [
      {"substance": "5′-(N[C5-PFC])2TTTTTCAGTTGACCATATA-3′ [F2]", "cellular uptake (flow cytometry)": "higher cellular uptake than the fluorescein-modified nucleic acid of cont-DNA"},
      {"substance": "5′-(N[C5-PFC])5TTTTTCAGTTGACCATATA-3′ (DNA, 5' {C5-PFC}-{C5-PFC}-{C5-PFC}-{C5-PFC}-{C5-PFC}, backbone not given here) [F5]", "cellular uptake (flow cytometry)": "higher cellular uptake than the fluorescein-modified nucleic acid of cont-DNA"},
      {"substance": "5′-(N[C5-PFC])TTTTCAGTTGACCATATA-3′ (DNA, 5' {C5-PFC}, backbone not given here) [F1]", "cellular uptake (flow cytometry)": "no difference from the fluorescein-modified nucleic acid of cont-DNA"}
    ]}
  ]
}
